Patent US20200093824A1, “ERBB3 Activators in Hearing Restoration” (University of Rochester, priority 2018, published 2020)
Entries after “also recorded” stand apart in the source; their conditions may differ.

Tests used:
[1] = tested on: organ of Corti explants (hair cells / supporting cells); test: Cochlear explant culture with Pa2g4/EBP1 inhibitors: MYO7+ / Atoh1-nGFP cell generation; assay type: cell-based, mouse; conditions: for Increase in number of MYO7+ cells in the apex / Atoh1-nGFP-positive cells near OHCs: Atoh1-nGFP mouse cochlear explants; for Increase in number of MYO7+ cells in the apex: WS3 or WS6 treatment; for Atoh1-nGFP-positive cells near OHCs: gradient from apex to base; for MYO7+ cell counts at the apex region versus controls: P1-P2 mouse organ of Corti explants, 48-72 hours, WS3 0.01 μM or WS6 0.5 μM vs DMSO, mean per 100 μm, WS6 p=0.0043, WS3 p=0.0060; for Concentration at which effects were observed in culture: application in culture
Experimental: (§1) Cochleae were isolated from postnatal day 1-day 2 wild type or Atoh1-nGFP mice (Lumpkin, Collisson et al. 2003). The organ of Corti was isolated from the otic capsule, and the nerve tissue and stria vascularis were removed. The organ of Corti was plated on a glass coverslip coated with a 1:10 mixture of Matrigel and DMEM/F12 to promote attachment. Cochlear explants were cultured in a serum-free 1:1 mixture of DMEM and F12, supplemented with Glutamax, N2, and B27. For the treated cochlea, small molecules were added to this culture medium, while the control cochlea was cultured with medium containing DMSO at the same concentration used in the treatments. To measure proliferation, explants were treated with EdU (10 μg/ml) along with the drug or DMSO. Drug-treated explants were cultured for 3 days then fixed in 4% PFA for 30 min.
(§2) To quantify WS3 and WS6-treated cochleae, the length of the sensory epithelium was measured using ImageJ software with the overall length determined from the hook to the apex in each sample. The number of myosin VIIa-positive cells or Edu positive cells in the supporting cell region were manually counted. The total number of cells was counted in each of four cochlear segments of 1200-1400 μm (apical, mid-apical, mid-basal, and basal), density (cells per 100 μm) was then calculated for each segment. Statistical analyses were performed using Prism version 7.0 software; comparisons among groups were made by one-way ANOVA followed by Dunnett's multiple-comparisons test for comparing the mean of each group with the mean of a control group.
Our findings with the conditional ErbB2 activation animal models have shown that the constitutive activation of ERBB2 can result in SC expansion and ectopic MYO7+ cell generation. To further validate the crucial role of ERBB2 activation, inventors turned to small molecules to pharmacologically activate the ErbB pathway and determine their effect on SC expansion and HC differentiation. Two compounds, WS3 and WS6, were chosen, as these two analogues promoted cell proliferation in growth arrested cells such as […] and retinal pigment epithelial (RPE) cells (Shen, Tremblay et al. 2013, Swoboda, Elliott et al. 2013). […] To test the effect of these drugs on SCs, they were applied to cochlear explants derived from Atoh1-nGFP reporter mice (Lumpkin, Collisson et al. 2003). […] The number of MYO7+ cells in the apex was increased by 20 cells/100 μm (FIGS. 7A and 7B).

[2] = tested on: supporting cells in organ of Corti explants; test: Cochlear explant culture with Pa2g4/EBP1 inhibitors: EdU supporting cell proliferation; assay type: cell-based; conditions: P1-P2 wild type mouse explants, 48-72 hours, WS3 0.01 μM or WS6 0.5 μM vs DMSO, gradient from apex to base
Experimental: as §1
as §2, with “Statistical analyses were performed using Prism version 7.0 software; comparisons among groups were made by one-way ANOVA followed by Dunnett's multiple-comparisons test for comparing the mean of each group with the mean of a control group.” left out

p-ERBB2 in MCF-7 cells = test: Western blot of ERBB2 pathway activation with anti-p-ERBB2 antibody (Y1248); assay type: cell-based; conditions: MCF-7 breast cancer cells, treated for 15 minutes
Experimental: FIGS. 8A, 8A′. […] FIG. 8A. Images of the apex region of the P1-P2 organ of Corti cultured for 48-72 hours in the presence of DMSO, WS3 (0.01 μM), or WS6 (0.5 μM). MYO7a (green), SOX2 (red) and EdU (blue) are shown. IHC, inner hair cells; OHC, outer hair cells (FIG. 8A′) Cross section of organ of Corti from FIG. 8A at the yellow line. Scale bar: 25 microns. FIG. 8B. […] FIG. 8C. Western blot analysis of ERBB2 pathway activation was conducted using anti-p-ERBB2 antibody (Y1248) in MCF-7 cells. Cells were treated with WS3 or WS6 for 15 minutes.
To determine if the drug treatments promoted SC proliferation, the compound were applied to cochlear explants from wild type mice at P1-P2 with EdU present to label the proliferating cells. […] To confirm that the effect of the drugs was mediated through ERBB2 activation, the ERBB2 phosphorylation was analyzed using the protein lysates from cochlear explant.

[3] = tested on: retinal pigment epithelium (RPE) cells; conditions: Swoboda, Elliott et al. 2013; cited from earlier work
rodent diabetes model = conditions: by promoting cell proliferation, Shen, Tremblay et al. 2013; cited from earlier work

SMILES	Increase in number of MYO7+ cells in the apex [1] [cells/100 μm]	Atoh1-nGFP-positive cells near OHCs [1]	MYO7+ cell counts at the apex region versus controls [1]	Concentration at which effects were observed in culture [1] [nM]	EdU+ cells in the SOX2+ supporting cell region [2]	p-ERBB2 level (p-ERBB2 in MCF-7 cells)	Expansion of retinal pigment epithelium (RPE) cells [3]	β-cell mass (rodent diabetes model)
CN1CCN(Cc2ccc(NC(=O)Nc3ccc(Oc4cc(NC(=O)C5CC5)ncn4)cc3)cc2C(F)(F)F)CC1 [WS3]	20	additional Atoh1-nGFP-positive cells near OHCs were seen	Significantly more MYO7+ cells	10	A large number of EdU+ cells were observed; also recorded: significantly more SCs	elevated	expands retinal pigment epithelium (RPE) cells	–
CN1CCN(Cc2ccc(NC(=O)Cc3ccc(Oc4cc(NC(=O)C5CC5)ncn4)cc3)cc2C(F)(F)F)CC1 [WS6]	20	additional Atoh1-nGFP-positive cells near OHCs were seen	Significantly more MYO7+ cells	500	A large number of EdU+ cells were observed; also recorded: significantly more SCs	elevated	–	increases p3-cell mass
